Values of other authors as cited in US20060014732A1, “Use of targeted oxidative therapeutic formulation in treatment of burns” (priority 2004, published 2006).

Columns and labels:
[1] = test system: multiple-drug resistant strain of Staphylococcus aureus; conditions: growing culture of S. aureus, 8 hours, with or without illumination
E. coli = conditions: increasing concentration of peroxide ex-vivo in rabbit or human blood
[2] = test system: peroxide-sensitive E. coli; conditions: infused into the blood

Compound	bactericidal effect in culture [1]	direct bactericidal activity (E. coli)	bactericidal effect [2]
CC1=C(CCC(=O)O)c2cc3nc(cc4[nH]c(cc4C)cc4[nH]c(cc1n2)cc4C)C(C)=C3CCC(=O)O [deuteroporphyrin]	strongly bactericidal only after photosensitization		
OO [hydrogen peroxide, Hydrogen peroxide]		no evidence of direct bactericidal activity	no bactericidal effect
hemin	moderately bactericidal but light independent		
